Reference: paper PMC8578336, “Neuroprotection of retinal ganglion cells by the sigma-1 receptor agonist pridopidine in models of experimental glaucoma” (Scientific Reports, 2021)
Structures can show the parent of a compound that is named as a salt. Where two headings read alike, the source gives them in different places.

How the values were obtained:
Kappa opioid receptor = target: Kappa opioid receptor; parameters: method as in PMID 16125682; conditions: cited from earlier work
S1R = conditions: cited from earlier work
[1] = target: empopamil binding protein (EBP); parameters: method as in PMID 11377189; conditions: cited from earlier work
[2] = tested on: mouse striatal neuronal cultures; conditions: 1 μM, 24 h
Protocol: Previous studies have shown a regulatory role of the S1R in mitochondrial function in retinal ganglion cells under stress[36]–[39]. […] (b) Quantification of OCR rate. […] Mitochondrial membrane potential was measured in isolated striatal mitochondria using Rhodamine123 (d) and quantified (e). […] Data are the mean ± SEM. All experiments were run in triplicates. *p < 0.05, **p < 0.01 by non-parametric Kruskal–Wallis test or Mann–Whitney test (in e).
Striatal neurons were isolated as previously described[78] from embryos at gestational day 16–17. […] Pridopidine was added for 24 h.

[3] = tested on: retinal ganglion cells (RGCs); conditions: for Loss of RBPMS-positive RGCs, lasered vs control eye (difference): 14 days; for Number of RGCs per retinal area, mean: 125/55 criterion
Protocol: (§1) The laser coagulation (LC) model of experimental glaucoma was utilized in Wistar rats. Additional benefits of using this model are avoiding idiosyncratic features inherent to a single model and increasing the likelihood of future translatability to human glaucoma[28],[29]. Both models utilize elevation of IOP, but to different degrees and with different time courses. Unilateral induction of IOP elevation was performed twice, at day 0 and day 7. […] IOP was measured at baseline, and after laser photocoagulation on days 1, 4, 7, 8, and 14 (Fig. 3a). At the end of the study, RGC numbers were assessed by immunostaining (Fig. 3b).
The number of RGCs was quantified using immunofluorescent staining for RNA-binding protein with multiple splicing (RBPMS), an RGC-specific marker, followed by stereological analysis of the entire retina[30] (Fig. 3c).
IOP was measured with a TonoLab tonometer.
Compounds were administered daily by oral gavage. On day 14 rats were sacrificed by transcardial perfusion, first with 0.9% NaCl solution, then with 4% PFA in 0.1 M phosphate buffer, pH 7.4. Eyes and optic nerves were collected for immunohistochemical analysis.
Retinal flat-mounts were immunostained with rabbit anti-RBPMS (PhosphoSolutions) and DAPI nuclear stain. Total number of RBPMS-positive cells was estimated using stereology as previously described.

human lymphoblasts [4] = conditions: 5 μM pretreatment 24 h; H2O2 0.1 mM 6 h; p < 0.0001
Protocol: (§2) ROS levels were quantified by co-staining with CellRox and DAPI. (a) Representative image and (b) quantification. […] Data is the mean ± SEM. *p < 0.05, ***p < 0.001, ****p < 0.0001 by two-way ANOVA with a Tukey’s multiple comparisons in (b), by non-parametric Mann–Whitney in (d), or Kruskal–Wallis test in (c) and (e). Full-length blots are presented in Supplementary Fig. 2.
(§3) Lymphoblasts (Corriel Institute, GM02174) were grown in RPMI medium containing 10% FBS, 2 mM L-glutamax, and 100 U/mL penicillin–streptomycin and passaged every 5–6 days. […] S1R knockdown was achieved using S1R-directed siRNA duplexes (Origene, cat no: SR426072). Transfection with Polyplus JETPRIME transfection protocol was performed 48 h before experiments. S1R knockdown was assessed by immunoblot.

optic nerve axons = conditions: for Loss of optic nerve axons vs. control eye (difference): 14 days; for Number of optic nerve axons, mean: 125/55 criterion
Protocol: as §1
Neuroprotective preservation of visual function in glaucoma and other optic neuropathies depends not only on preservation of cell bodies, but also on maintaining connectivity between the eye and the brain. Connectivity is preserved by protecting RGC axons[31]–[33], i.e. axoprotection. To study this, the number of optic nerve axons per optic nerve area was compared between different treatment groups (Fig. 4a,b). […] Compounds were administered daily by oral gavage. On day 14 rats were sacrificed by transcardial perfusion, first with 0.9% NaCl solution, then with 4% PFA in 0.1 M phosphate buffer, pH 7.4. Eyes and optic nerves were collected for immunohistochemical analysis.
Optic nerves were postfixed in 4% PFA (in 0.1 M phosphate buffer, pH 7.4), placed in 1% osmium, dehydrated in ascending alcohol concentrations, and placed in 1% uranyl acetate in 100% ethanol for 1 h[76],[77]. Optic nerves were embedded in epoxy resin mixture at 60 °C for 48 h and 1 µm sections prepared. Axon number was estimated using stereology, as previously described.

[5] = tested on: isolated striatal mitochondria; conditions: 30 mg/kg daily for 45 days; p = 0.0013
Protocol: (§4) (b) Quantification of OCR rate. […] Mitochondrial membrane potential was measured in isolated striatal mitochondria using Rhodamine123 (d) and quantified (e). […] Data are the mean ± SEM. All experiments were run in triplicates. *p < 0.05, **p < 0.01 by non-parametric Kruskal–Wallis test or Mann–Whitney test (in e).

striatal neurons = conditions: 1 μM, 24 h; NMDA 10 µM + glycine 20 µM 15 min; p = 0.0072
Protocol: as §4
Striatal neurons were isolated as previously described[78] from embryos at gestational day 16–17.

[6] = tested on: retinal ganglion cells (RGCs); conditions: for RGC loss (%): OD vs OS eye, mean ± SEM
Protocol: Hypertonic saline injection (HSI) was performed on day 0 and day 7 into the episcleral veins of the right eye of pigmented Brown Norway rats in order to create a sustained increase of IOP.
Over the course of the study, animals were clinically evaluated daily, and IOP and body weight measured weekly (Fig. 1a).
The number of RGCs was quantified using immunofluorescent staining for the RGC marker brain-specific homeobox/POU domain protein 3A (Brn-3a), followed by image analysis. RGCs were counted in one medial and one distal area in each retinal quadrant, up to eight regions per retina (Fig. 1c, Supp Table 4). The percent of RGC loss was calculated by comparing the number of RGC counts per retina in the OD eye to that in the OS eye. […] Rats were sedated with ketamine and xylazine (40–80 and 5–10 mg/kg, respectively), kept warm and eyes moist to avoid desiccation during the procedure. Eye surface was treated with erythromycin (0.5%). On Days 0 and 7, hypertonic saline solution (250 μL, NaCl, 1.8–2.0 M) was injected into the limbal vascular plexus via different episcleral veins in the OHT eye.
Eyes were immediately enucleated following CO2 euthanasia and fixed in paraformaldehyde (PFA, 4%) at 4 °C for 24 h, then dissected in PBS. Retinas were permeabilized in PBS + 0.5% Triton X-100 for 15 min, frozen at − 80 °C for 15 min, then rinsed in PBS-0.5% Triton. […] Four radial cuts were made in the retina and it was flat-mounted. Two regions of interest (medial and distal) were acquired in each quadrant with fluorescent microscopy, and RGCs counted using ImageJ.

human lymphoblasts [7] = conditions: 5 µM, 24 h
Protocol: as §2
Mitochondrial function was then assessed with the MMP-dependent probe TMRE (tetramethylrhodamine ethyl ester).
as §3

CC(C)=CCN1CC[C@]2(C)c3cc(O)ccc3C[C@H]1[C@H]2C [PTZ, (+)pentazocine]
Ki (Kappa opioid receptor): 2.2 nM

COc1ccc(CCN2CCN(CCCc3ccccc3)CC2)cc1OC [SA4503, cutamesine dihydrochloride, reference compound]
Ki (S1R): 17.4 nM
Ki [1]: 1.72 nM

CCCN1CCC(c2cccc(S(C)(=O)=O)c2)CC1 [Pridopidine]
Ki (S1R): 57 nM
ATP production ([2]; p = 0.0015): significantly increases
Maximal mitochondrial respiration ([2]; p = 0.0061): significantly increases
Basal mitochondrial respiration ([2]; p = 0.0082): significantly increases
Loss of RBPMS-positive RGCs, lasered vs control eye (difference) ([3]; 3 mg/kg daily oral): 5.2%
Number of RGCs per retinal area, mean ([3]; 3 mg/kg, control eye): 1404
Number of RGCs per retinal area, mean ([3]; 3 mg/kg, lasered eye): 1315
Loss of RBPMS-positive RGCs, lasered vs control eye (difference) ([3]; 30 mg/kg daily oral): 7.7%
Number of RGCs per retinal area, mean ([3]; 30 mg/kg, control eye): 1444
Number of RGCs per retinal area, mean ([3]; 30 mg/kg, lasered eye): 1336
Loss of RBPMS-positive RGCs, lasered vs control eye (difference) ([3]; 60 mg/kg daily oral): 13.9%
Number of RGCs per retinal area, mean ([3]; 60 mg/kg, control eye): 1417
Number of RGCs per retinal area, mean ([3]; 60 mg/kg, lasered eye): 1198
H2O2-induced ROS production (CellRox staining) (human lymphoblasts [4]): significantly ameliorated
Axoprotection of optic nerves compared to the vehicle group (optic nerve axons; 3 mg/kg): 69%
Loss of optic nerve axons vs. control eye (difference) (optic nerve axons; 3 mg/kg daily oral, p = 0.006): 8.6%
Number of optic nerve axons, mean (optic nerve axons; 3 mg/kg, control eye): 394
Number of optic nerve axons, mean (optic nerve axons; 3 mg/kg, lasered eye): 358
Axoprotection of optic nerves compared to the vehicle group (optic nerve axons; 30 mg/kg): 45%
Loss of optic nerve axons vs. control eye (difference) (optic nerve axons; 30 mg/kg daily oral, p = 0.04): 15%
Number of optic nerve axons, mean (optic nerve axons; 30 mg/kg, control eye): 433
Number of optic nerve axons, mean (optic nerve axons; 30 mg/kg, lasered eye): 363
Axoprotection of optic nerves compared to the vehicle group (optic nerve axons; 60 mg/kg): 74%
Loss of optic nerve axons vs. control eye (difference) (optic nerve axons; 60 mg/kg daily oral, p = 0.002): 7.6%
Number of optic nerve axons, mean (optic nerve axons; 60 mg/kg, control eye): 395
Number of optic nerve axons, mean (optic nerve axons; 60 mg/kg, lasered eye): 365
MMP in isolated mitochondria from treated mice [5]: increase in MMP
Mitochondrial membrane potential (MMP) after NMDA plus glycine (striatal neurons): rescues the decrease in MMP
RGC loss (%) ([6]; 3 mg/kg daily oral gavage day 1-41): 25 ± 7%
Mean RGC count/animal ([6]; 3 mg/kg, OD eye): 105.25
Mean RGC count/animal ([6]; 3 mg/kg, OS eye): 144.75
RGC loss (%) ([6]; 30 mg/kg daily oral gavage day 1-41): 21 ± 6%
Mean RGC count/animal ([6]; 30 mg/kg, OD eye): 122.78
Mean RGC count/animal ([6]; 30 mg/kg, OS eye): 158.56
RGC neuroprotection compared to vehicle control ([6]; 30 mg/kg, p = 0.019): 50%
RGC loss (%) ([6]; 60 mg/kg daily oral gavage day 1-41): 7 ± 9%
Mean RGC count/animal ([6]; 60 mg/kg, OD eye): 116.50
Mean RGC count/animal ([6]; 60 mg/kg, OS eye): 130.40
RGC neuroprotection compared to vehicle control ([6]; 60 mg/kg, p = 0.005): 83%
H2O2-induced reduction of MMP (TMRE) (human lymphoblasts [7]; S1R genetically silenced with siRNA): unable to rescue MMP
H2O2-induced reduction of MMP (TMRE) (human lymphoblasts [7]; S1R-expressing cells, p = 0.0002): rescues this effect
